From patent publication US12208091B2, “Compounds for treatment of eye diseases associated with excessive vascularisation” (Active Biotech AB, priority 2019, dated 2025)

Key:
[1] = test system: VEGF induced corneal vascularisation; assay: VEGF induced corneal vascularisation (pellet in corneal pocket), area of neovascularisation; type: in vivo, C57BL/6 mice; parameters: Area of vasc.: unit not given beside the values
Description: The area of the neovascularisation can be measured using the formula: Area=0.2·VL·CH·π wherein vessel length (VL) and continuous circumferential zone (in clock hours=CH) are measured as defined in FIG. 1. Treatment with Laquinimod of VEGF Induced Corneal Vascularisation
Hydron pellets for induction of vascularisation were prepared from stimulant (VEGF) and binding agent (sucralfate).
53 CR female C57BL/6 mice aged 6 to 8 weeks were prepared for surgery by anesthetising with 90 mg/kg of pentobarbital, ip. Corneal vascularisation was induced by placement of a pellet in a corneal pocket cut in one eye. Signs for ocular irritation or infection were carefully monitored.
[…] Vascularisation was measured on day 8.

[2] = test system: choroidal neovascularisation; assay: Laser-induced choroidal neovascularisation rat model, fluorescein angiography leakage score; type: in vivo, Brown Norway pigmented rats; parameters: key to Mean score of fluorescein leakage: 0 = no leakage, 1 = slight, 2 = moderate, 3 = strongly stained; conditions: Per os 0.5 mg/kg 1×/day
Description: Forty-eight (48) Brown Norway pigmented rats were divided into six (6) groups of eight (8) animals. Choroidal neovascularization was induced using a 532 nm argon laser photocoagulator (six (6) 75 μm-sized spots at 150 mW for 0.1 sec duration) in the right eyes on Day 0. The test item was administered three times a day by instillation or twice a day by oral administration from Day 0 (DO) just after ChNV induction to Day 21 (last day of the study). Control item (vehicle) was instilled three times a day and the reference item (Dexamethasone in olive oil) was administered by daily oral administration from the Day 0 just after induction of neovascularization to Day 21. Fundus neovessels were evaluated in the right eyes on Days 14 and 21 using Heidelberg's Retinal Angiograph (HRA). Lesion size was determined on choroid flatmounts labelled with Isolectin-B4 at the end of the in vivo period.
On Day 0, animals were anesthetized by an intramuscular injection of a mix of xylazine (5 mg/kg) and ketamine (25 mg/kg). Pupils from the right eyes were dilated by instillation of one drop of 0.5% tropicamide. Then, six (6) choroidal burns (75 μm spot size) were done through a slit-lamp, with a contact lens, around the optic disc, between the main vessel branches using an argon laser photocoagulator (532 nm; 150 mW; 0.1 sec duration). Production of a bubble at the time of laser treatment confirmed the rupture of Bruch's membrane.
Test, control, or reference items were administered topically by instillation (10 μL each) or by oral route (1 mL/kg) from Day 0 (just after the induction) to Day 21 (end of the study). Test and control items were administered three times a day (for instillation) and two times a day (for oral administration). Reference item was administered once a day by oral route.
Fluorescein angiography was performed on Days 14 and 21 using an HRA (Heidelberg's Retinal Angiograph). After anaesthesia (same mix used for ChNV induction) and pupillary dilation, 250 μL/100 g (body weight) of a 10% sodium fluorescein was injected subcutaneously using a 26-G insulin syringe, and fluorescein photos were recorded 10 minutes after dye injection.
The leakage of fluorescein on the angiograms were evaluated by two examiners in a masked fashion and graded as follows: • Score 0, no leakage; • Score 1, slightly stained; • Score 2, moderately stained; • Score 3, strongly stained.
Statistical analysis, using Mann-Whitney U test or appropriate statistical model, were performed on the scoring of lesions visualized by HRA from each animal and on the scoring of the flat mounted preparations.
The grading of fluorescein angiographies (FA) was based on the fluorescence intensity for each lesion. For each treatment group, results were expressed as the group mean score per time-point. Table 1 summarises the evaluation of FA recorded at 10 min on Days 14 and 21 (n=8 animals per group, right eyes). A statistical analysis was performed on the median of the individual intensity scores, using a Kruskall-Wallis test followed by a Mann & Whitney U multiple comparison test, which was used to compare each test, control or reference group.

[3] = Animal body weight in the ChNV rat study; type: in vivo, Brown Norway pigmented rats; conditions: during the study, oral 0.5 mg/kg 1×/day
Description: The body weight of all animals was recorded before the start of the study, then once every week.
Animal body weights were recorded before induction and treatment (baseline) and then once a week. Animal body weights were within the normal range at the baseline: 166-202 g (min−max, n=48). On Day 21, no significant difference between test and control items was observed. […] This loss is an expected adverse effect of orally dosed corticosteroid.

[4] = test system: Human retinal microvascular endothelial cells (HRMECs); assay: LPS-activated microglia-induced HRMEC tube formation (co-culture); type: cell-based
Description: The following experimental groups were included in the study: • Group 1: […] Sulforaphane (10 μM, positive control, anti-angiogenic effects) • Group 3: Aflibercept (“Eylea” 40 μg/ml, positive control, partial anti-angiogenic effects) • Group 4: […] Human retinal microvascular endothelial cells (HRMECs) were purchased from Neuromics (Cat #HEC09, Lot #2872) and cultured according to manufacturer's instructions in Endo-Growth media (Cat #EKG001, Lot #EKG0011902269) supplemented with Endothelial Growth Factor (Cat #EKG001, Lot #EGK00125) on AlphaBiocoat coated T25 flasks at 37° C. 5% CO2. […] Human microglia were seeded onto PLL coated cell culture inserts (Sarstedt, Cat #83.3932.040) at 103 000 cells/cm^2. […] The method for co-cultures of microglia and HRMECs was modified from protocol described by Ding et al. 2018 (Ding X, Gu R, Zhang M, Ren H, Shu Q, Xu G, Wu H. Microglia enhanced the angiogenesis, migration and proliferation of co-cultured RMECs. […] PMID: 30223824; PMCID: PMC6142340) and Ji Cho et al. 2019 (Ji Cho M, Yoon […], Park J, Lee J, Park J G, Cho Y L, Hun Kim J, Jang H, Park Y J, Lee S H, Min J K. Oxidative stress-mediated TXNIP loss causes RPE dysfunction. […] PMID: 31615975; PMCID: PMC6802648). Microglia was activated with LPS (100 ng/ml) in microglia complete growth media without FBS with simultaneous treatment of freshly prepared study compounds, Eylea and vehicle for 24 hours. HRMECs were incubated in basal Endo-Growth media for 24 hours before co-culturing. […] Media in microglia inserts containing LPS was replaced to corresponding freshly prepared study compounds, aflibercept and sulforaphane in basal Endo-Growth media. […] 5% CO2, stained with calcein-AM (5 μM) for 30 min and imaged using a fluorescence microscope (Leica Thunder 3D Tissue Imager, Leica Microsystems). Images were analyzed using the AngioTool software (Zudaire E, Gambardella L, Kurcz […] Computational Tool for Quantitative Analysis of Vascular Networks. PLOS ONE 6(11): e27385. https://doi.org/10.1371/journal.pone.0027385) for ImageJ (NIH public domain). Total tube area, tube length, density, lacunarity, and branching index (number of junctions and endpoints) were quantified. Images were analyzed using AngioTool software (NIH, Bethesda, MD; available in the public domain) for the following readouts: average vessels length, total vessels length, vessel area, vessels percentage area, total number of junctions, density of junctions, total number of endpoints, and mean lacunarity. […] Raw data for each of the readouts was plotted and analyzed by ordinary one-way ANOVA with Dunnett's multiple comparisons post-hoc test. […] Effect size data were analyzed by non-parametric Kruskal-Wallis test, with Dunn's multiple comparisons post-hoc test.

[5] = test system: metastatic chemo naïve prostate cancer (mCRPC); conditions: randomized placebo controlled Phase 2 and 3 studies; cited from earlier work
[6] = test system: bFGF induced corneal vascularisation; assay: bFGF induced corneal vascularisation (pellet in corneal pocket), area of neovascularisation; type: in vivo, C57BL/6 mice
[7] = test system: Human retinal microvascular endothelial cells (HRMECs); assay: Tube formation assay, combination with aflibercept (contemplated); type: cell-based; conditions: 0.01 and 0.1 μM combined with Aflibercept (30 nM)
From the text: Microglia, especially activated microglia play important roles in angiogenesis and maintenance of vascular function haemostasis in the retinal microvasculature (Ding et al 2018). It is contemplated that a co-culture of human retinal microvasculature endothelial cells (HRMEC's) and human microglia from brain can be used to assess the effects of a compound of the disclosure, such as laquinimod, tasquinimod, ABR-215174 or ABR-215691, on neovascularization. A method such as the one outlined below may be used.
This study may be carried out substantially as outlined in Example 3.
Tube formation assay is performed using 24-well plate wells coated with Matrigel or in 96-wells as described Ding et al. 2018 (Ding et al. BMC Ophthalmology (2018) 18:249): A 96-well plate is coated with 50 μL/well Matrigel at 37° C. for 30 min. After co-culturing with microglia for 24 h, HRMECs are seeded on the Matrigel at 1.5×10^4 cells/well in 100 μL medium. After a period of time, for example 4 h, tube formation is observed and photographed with a microscope (Leica Microsystems). Images are analysed using the Angiotool plugin (Zudaire et al., 2011, PLoS one, 6, 11, e27385) for ImageJ (NIH public domain). Total tube area, tube length, density, lacunarity, and branching index (number of junctions and endpoints) are quantified.

[8] = group 2: 5 mg/kg ip qd ×7, measured day 8
[9] = group 2: 5 mg/kg po qd ×5, measured day 6

In the case of “Avastin: Bevacizumab (Avastin) is an IgG1-based antibody which binds VEGF-A; positive control”, the “Inhibition of corneal vascularisation induced by VEGF” value ([1]; 5 mg/kg (reference)) is reported as 100%, the Area of vasc. [1, 8] is reported as 0.00 ± 0.00 and the “Area percent of positive control” value [1, 8] is reported as 0%.

For `C[C@@H]1C[C@H]2[C@@H]3CCC4=CC(=O)C=C[C@]4(C)[C@@]3(F)[C@@H](O)C[C@]2(C)[C@@]1(O)C(=O)CO` [Dexamethasone, reference compound], the “% of reduction vs respective vehicle” value ([2]; Day 14) was 71%, the “Mean score of fluorescein leakage” value ([2]; Day 14) was 0.7 and the “% of reduction vs respective vehicle” value ([2]; Day 21) was 73%. The “Mean score of fluorescein leakage” value ([2]; Day 21) was 0.8 and the body weight loss [3] was 21%.

In the case of `C[S+]([O-])CCCCN=C=S` (stereo not shown) [sulforaphane, reference compound], the “Normalized effect size on average vessel length” value (“Normalized effect size” below) ([4]; 10 μM, positive control, set to 100% by normalisation (vehicle 0%)) is reported as 100%.

For `COc1cccc2c1c(O)c(C(=O)N(C)c1ccc(C(F)(F)F)cc1)c(=O)n2C` [tasquinimod], the “Disease progression (primary endpoint)” value [5] is listed as “significantly delayed”.

In the case of “Eylea: recombinant protein aflibercept (Eylea) with affinity for VEGF-A, VEGF-B, and PGF”, the “Normalized effect size” value ([4]; 40 μg/ml, normalised to vehicle 0%, sulforaphane 100%) is reported as 18%.

With `CCN(CC)CCNC(=O)c1c(C)[nH]c(/C=C2\C(=O)Nc3ccc(F)cc32)c1C` [Sutent, reference compound] the “Inhibition of corneal vascularisation induced by bFGF” value ([6]; 40 mg/kg) was 80%, the Area of vasc. [6, 9] was 0.72 ± 0.08 and the “Area percent of positive control” value [6, 9] was 20%.

For `Cn1c(=O)c(C(=O)Nc2ccccc2)c(O)c2c(Cl)cccc21` [ABR-215174, 5-chloro-4-hydroxy-1-methyl-2-oxo-1,2-dihydroquinoline-3-carboxylic acid phenylamide], the “effect on tube formation of combination compared to each compound used as monotherapy” value [7] was “clear additive effect” and the “Normalized effect size” value ([4]; 0.1 μM, normalised to vehicle 0%, sulforaphane 100%) was 88.2%.
